Assay results from US20100292325A1, “P-MENTHAWE-3-CARBOXYLIC ACID ESTERS TO TREAT AIRWAYS DISEASES” (priority 2007, published 2010).

What was measured:
[1] = test system: oropharynx (back of the mouth); assay: Bioassay: compound applied by glass rod onto the posterior dorsal tongue, oral sensations noted; type: in vivo, human; conditions: for sensation from the oral cavity: 2 mg on the posterior third of the tongue; for cooling qualities: in vivo
Method: CPS-004 and CPS-030 are liquids at room temperatures. These compounds were tested by placing 0, 2, 5 and 8 mg on a 6-inch glass rod and applying these compounds onto the posterior third of the dorsal surface of the tongue. After depositing the test substance, the subject was instructed to keep the mouth closed and allow the test substance to distribute to the back of the mouth (orpharynx). The presence and duration of sensations from the oral cavity was then noted.

TRP-M8 = TRP-M8 (Homo sapiens, UniProt Q7Z2W7); conditions: cited from earlier work
skin = conditions: in vivo; cited from earlier work

Chain of TRP-M8 (Q7Z2W7 whole entry, species assumed): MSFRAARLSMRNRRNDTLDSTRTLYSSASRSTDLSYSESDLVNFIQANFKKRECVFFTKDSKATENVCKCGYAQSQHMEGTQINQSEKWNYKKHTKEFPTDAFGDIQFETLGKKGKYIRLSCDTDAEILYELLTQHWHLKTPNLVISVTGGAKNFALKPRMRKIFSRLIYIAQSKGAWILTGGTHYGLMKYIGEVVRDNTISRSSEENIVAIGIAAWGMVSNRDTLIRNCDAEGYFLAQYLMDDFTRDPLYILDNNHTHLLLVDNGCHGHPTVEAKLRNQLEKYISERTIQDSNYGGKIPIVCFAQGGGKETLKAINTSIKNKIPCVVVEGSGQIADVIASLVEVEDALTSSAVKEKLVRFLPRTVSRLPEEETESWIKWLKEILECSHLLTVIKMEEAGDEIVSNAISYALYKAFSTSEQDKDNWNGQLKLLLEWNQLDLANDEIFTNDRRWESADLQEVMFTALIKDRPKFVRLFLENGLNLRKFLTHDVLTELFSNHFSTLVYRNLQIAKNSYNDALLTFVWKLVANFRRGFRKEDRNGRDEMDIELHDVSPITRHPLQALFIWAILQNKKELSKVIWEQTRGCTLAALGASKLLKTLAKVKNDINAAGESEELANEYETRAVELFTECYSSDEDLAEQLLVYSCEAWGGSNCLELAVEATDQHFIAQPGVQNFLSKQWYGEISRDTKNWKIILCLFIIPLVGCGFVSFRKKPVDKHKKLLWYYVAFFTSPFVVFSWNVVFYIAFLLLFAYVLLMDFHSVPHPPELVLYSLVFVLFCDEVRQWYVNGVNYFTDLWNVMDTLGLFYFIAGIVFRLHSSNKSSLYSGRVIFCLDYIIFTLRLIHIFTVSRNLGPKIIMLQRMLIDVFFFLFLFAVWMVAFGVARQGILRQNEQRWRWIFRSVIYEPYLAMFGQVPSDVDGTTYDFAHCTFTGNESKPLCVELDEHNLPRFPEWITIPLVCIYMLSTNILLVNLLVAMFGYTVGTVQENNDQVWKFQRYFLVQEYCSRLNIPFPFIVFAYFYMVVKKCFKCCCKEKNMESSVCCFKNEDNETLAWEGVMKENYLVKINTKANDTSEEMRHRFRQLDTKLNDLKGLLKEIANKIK

taste ([1]; applied onto the tongue) | SMILES | sensation from the oral cavity [1] | cooling qualities [1] | potency on TRP-M8 relative to menthol (TRP-M8) | cooling action on the skin (skin)
 | CC(C)[C@@H]1CC[C@@H](C)C[C@H]1C(=O)OCCO [CPS-004] | cooling effect on the back of the mouth | good cooling qualities |  | 
 | COc1ccc(NC(=O)[C@@H]2C[C@H](C)CC[C@H]2C(C)C)cc1 [WS-12] |  |  | 2000 times | does not produce very much cooling action on the skin
acrid taste which was objectionable | CC(C)[C@@H]1CC[C@@H](C)C[C@H]1C(=O)OCC(O)CO (stereo partly shown) [CPS-030] | cooling effect on the back of the mouth | good cooling qualities |  | 
